{"source": "paper PMC6978363", "about": "“Chaperone mediated detection of small molecule target binding in cells” (Nature Communications, 2020)", "test_in_all_cases": "biochemical", "conditions_in_all_cases": "read-out: % Inhibition (at 10mM)", "key": {"MuSK": {"target": "MuSK (Homo sapiens, UniProt O15146)"}, "MRCK_beta": {"target": "T1, MRCK_beta (Homo sapiens, UniProt Q9Y5S2)", "T1 construct": "gene CDC42BPB"}, "NEK4": {"target": "NEK4 (Homo sapiens, UniProt P51957)"}, "CSF1R": {"target": "CSF1R (Homo sapiens, UniProt P07333)"}, "HIPK4": {"target": "HIPK4 (Homo sapiens, UniProt Q8NE63)"}, "CaMKII_beta": {"target": "T2, CaMKII_beta (Homo sapiens, UniProt Q13554)", "T2 construct": "gene CAMK2B", "T2 sequence (Q13554 whole entry)": "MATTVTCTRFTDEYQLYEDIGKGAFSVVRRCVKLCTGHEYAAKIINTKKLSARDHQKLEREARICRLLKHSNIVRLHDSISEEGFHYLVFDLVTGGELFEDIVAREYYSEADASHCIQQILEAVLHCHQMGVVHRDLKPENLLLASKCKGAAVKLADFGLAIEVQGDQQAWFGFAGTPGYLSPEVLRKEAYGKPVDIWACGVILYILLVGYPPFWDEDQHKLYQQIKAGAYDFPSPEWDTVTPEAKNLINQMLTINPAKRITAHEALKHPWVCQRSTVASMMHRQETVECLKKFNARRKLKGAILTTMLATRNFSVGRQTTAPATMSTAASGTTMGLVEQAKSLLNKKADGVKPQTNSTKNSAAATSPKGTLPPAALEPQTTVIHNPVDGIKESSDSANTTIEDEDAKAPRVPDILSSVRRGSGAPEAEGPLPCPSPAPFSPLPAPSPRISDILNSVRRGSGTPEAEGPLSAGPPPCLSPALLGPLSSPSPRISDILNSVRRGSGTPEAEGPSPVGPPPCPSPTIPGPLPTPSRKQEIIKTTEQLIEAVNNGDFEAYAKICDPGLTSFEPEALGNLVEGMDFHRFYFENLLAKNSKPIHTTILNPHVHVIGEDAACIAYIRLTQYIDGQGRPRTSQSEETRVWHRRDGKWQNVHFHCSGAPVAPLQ"}, "MAPKAPK3": {"target": "MAPKAPK3 (Homo sapiens, UniProt Q16644)", "sequence (Q16644 whole entry)": "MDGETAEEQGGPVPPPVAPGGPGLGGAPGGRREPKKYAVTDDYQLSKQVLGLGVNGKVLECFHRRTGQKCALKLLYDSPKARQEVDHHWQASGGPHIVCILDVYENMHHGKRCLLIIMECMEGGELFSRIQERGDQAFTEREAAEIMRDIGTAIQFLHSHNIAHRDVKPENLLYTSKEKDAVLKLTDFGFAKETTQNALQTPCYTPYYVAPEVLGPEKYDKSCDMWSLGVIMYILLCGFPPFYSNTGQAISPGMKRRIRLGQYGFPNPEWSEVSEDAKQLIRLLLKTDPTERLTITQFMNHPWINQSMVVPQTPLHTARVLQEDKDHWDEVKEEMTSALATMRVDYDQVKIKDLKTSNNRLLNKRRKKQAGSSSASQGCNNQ"}, "Mink1": {"target": "Mink1 (Homo sapiens, UniProt Q8N4C8)"}, "Rse": {"target": "T3, Rse (Homo sapiens, UniProt Q06418)", "T3 construct": "gene TYRO3"}, "ERK2": {"target": "T4, ERK2 (Homo sapiens, UniProt P28482)", "T4 construct": "gene MAPK1"}, "PRKAA1": {"target": "PRKAA1 (Homo sapiens, UniProt Q13131)"}, "PKG1_alpha": {"target": "T5, PKG1_alpha (Homo sapiens, UniProt Q13976)", "T5 construct": "gene PRKG1; isoform alpha"}, "TNK1": {"target": "TNK1 (Homo sapiens, UniProt Q13470)"}, "GRK7": {"target": "GRK7 (Homo sapiens, UniProt Q8WTQ7)", "sequence (Q8WTQ7 whole entry)": "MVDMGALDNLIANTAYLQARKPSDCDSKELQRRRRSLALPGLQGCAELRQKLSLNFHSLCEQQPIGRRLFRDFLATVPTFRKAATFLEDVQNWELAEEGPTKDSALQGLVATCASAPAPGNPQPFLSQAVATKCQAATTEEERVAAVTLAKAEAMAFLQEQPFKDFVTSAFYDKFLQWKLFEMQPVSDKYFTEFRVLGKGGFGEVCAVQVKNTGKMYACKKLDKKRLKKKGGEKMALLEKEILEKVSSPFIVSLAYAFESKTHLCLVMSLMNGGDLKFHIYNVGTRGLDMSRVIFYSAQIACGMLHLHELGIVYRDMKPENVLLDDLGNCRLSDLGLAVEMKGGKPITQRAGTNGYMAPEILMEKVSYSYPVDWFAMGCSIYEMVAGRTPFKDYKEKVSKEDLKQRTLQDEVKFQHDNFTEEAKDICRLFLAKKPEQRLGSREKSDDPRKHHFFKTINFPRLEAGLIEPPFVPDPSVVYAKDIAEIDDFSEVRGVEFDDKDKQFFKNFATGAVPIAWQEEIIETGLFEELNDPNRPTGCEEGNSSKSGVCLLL"}, "NIM1": {"target": "T6, NIM1 (Homo sapiens, UniProt Q8IY84)", "T6 construct": "gene NIM1K"}, "PLK3": {"target": "PLK3 (Homo sapiens, UniProt Q9H4B4)", "sequence (Q9H4B4 whole entry)": "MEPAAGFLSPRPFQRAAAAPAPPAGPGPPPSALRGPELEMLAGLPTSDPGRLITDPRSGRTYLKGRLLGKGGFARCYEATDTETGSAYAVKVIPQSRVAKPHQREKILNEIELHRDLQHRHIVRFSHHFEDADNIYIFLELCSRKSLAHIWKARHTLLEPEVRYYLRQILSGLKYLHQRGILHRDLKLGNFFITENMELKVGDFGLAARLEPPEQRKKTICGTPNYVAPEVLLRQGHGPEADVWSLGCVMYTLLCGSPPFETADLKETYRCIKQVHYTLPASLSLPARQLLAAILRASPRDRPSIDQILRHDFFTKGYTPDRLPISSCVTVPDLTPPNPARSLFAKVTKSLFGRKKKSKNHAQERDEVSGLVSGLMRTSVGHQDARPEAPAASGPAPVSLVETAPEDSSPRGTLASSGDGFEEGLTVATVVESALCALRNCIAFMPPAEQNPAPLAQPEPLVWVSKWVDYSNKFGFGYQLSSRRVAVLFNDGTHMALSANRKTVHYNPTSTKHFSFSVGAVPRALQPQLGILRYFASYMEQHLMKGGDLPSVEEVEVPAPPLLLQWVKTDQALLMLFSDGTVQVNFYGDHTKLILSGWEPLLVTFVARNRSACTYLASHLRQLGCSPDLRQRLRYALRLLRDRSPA"}, "Lyn": {"target": "Lyn (Homo sapiens, UniProt P07948)"}, "PAK7": {"target": "T7, PAK7 (Homo sapiens, UniProt Q9P286)", "T7 construct": "gene PAK5"}, "CSK": {"target": "CSK (Homo sapiens, UniProt P41240)"}, "RSK1": {"target": "T8, RSK1 (Homo sapiens, UniProt Q15418)", "T8 construct": "gene RPS6KA1"}, "NEK2": {"target": "NEK2 (Homo sapiens, UniProt P51955)", "sequence (P51955 whole entry)": "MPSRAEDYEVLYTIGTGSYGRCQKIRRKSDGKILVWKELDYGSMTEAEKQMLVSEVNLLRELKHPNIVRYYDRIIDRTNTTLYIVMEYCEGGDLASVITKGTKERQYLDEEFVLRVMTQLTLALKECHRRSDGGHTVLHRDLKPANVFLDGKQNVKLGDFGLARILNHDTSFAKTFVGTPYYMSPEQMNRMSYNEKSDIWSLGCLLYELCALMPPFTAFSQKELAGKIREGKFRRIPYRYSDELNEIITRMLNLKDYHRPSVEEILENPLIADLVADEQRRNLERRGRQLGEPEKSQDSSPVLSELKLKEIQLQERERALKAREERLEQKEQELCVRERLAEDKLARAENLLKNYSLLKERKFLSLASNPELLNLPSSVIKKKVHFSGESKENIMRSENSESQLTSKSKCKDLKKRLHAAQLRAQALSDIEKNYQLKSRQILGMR"}, "p38_alpha(direct)": {"target": "T9, p38_alpha(direct) (Homo sapiens, UniProt Q16539)", "T9 construct": "gene MAPK14; direct"}, "MAPKAPK2": {"target": "MAPKAPK2 (Homo sapiens, UniProt P49137)"}, "PhK_gamma1": {"target": "T10, PhK_gamma1 (Homo sapiens, UniProt Q16816)", "T10 construct": "gene PHKG1"}, "PrKX": {"target": "PrKX (Homo sapiens, UniProt P51817)"}, "SGK1": {"target": "SGK1 (Homo sapiens, UniProt O00141)", "sequence (O00141 whole entry)": "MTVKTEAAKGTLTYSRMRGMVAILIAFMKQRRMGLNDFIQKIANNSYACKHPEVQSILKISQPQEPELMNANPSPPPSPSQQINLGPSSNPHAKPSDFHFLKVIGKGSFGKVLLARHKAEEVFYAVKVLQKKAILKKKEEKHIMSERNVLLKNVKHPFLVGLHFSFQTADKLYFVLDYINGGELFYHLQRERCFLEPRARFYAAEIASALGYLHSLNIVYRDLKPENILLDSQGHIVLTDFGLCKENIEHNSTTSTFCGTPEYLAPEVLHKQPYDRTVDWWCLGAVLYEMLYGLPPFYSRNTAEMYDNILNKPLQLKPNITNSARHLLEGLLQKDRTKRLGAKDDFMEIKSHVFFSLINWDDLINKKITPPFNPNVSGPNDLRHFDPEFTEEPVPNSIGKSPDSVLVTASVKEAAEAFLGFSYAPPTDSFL"}, "GRK5": {"target": "GRK5 (Homo sapiens, UniProt P34947)"}, "Abl": {"target": "T11, Abl (Homo sapiens, UniProt P00519)", "T11 construct": "gene ABL1"}, "MARK1": {"target": "MARK1 (Homo sapiens, UniProt Q9P0L2)"}, "CK2_alpha2": {"target": "T12, CK2_alpha2 (Homo sapiens, UniProt P19784)", "T12 construct": "gene CSNK2A2"}, "PKC_theta": {"target": "T13, PKC_theta (Homo sapiens, UniProt Q04759)", "T13 construct": "gene PRKCQ"}, "Fgr": {"target": "Fgr (Homo sapiens, UniProt P09769)", "sequence (P09769 whole entry)": "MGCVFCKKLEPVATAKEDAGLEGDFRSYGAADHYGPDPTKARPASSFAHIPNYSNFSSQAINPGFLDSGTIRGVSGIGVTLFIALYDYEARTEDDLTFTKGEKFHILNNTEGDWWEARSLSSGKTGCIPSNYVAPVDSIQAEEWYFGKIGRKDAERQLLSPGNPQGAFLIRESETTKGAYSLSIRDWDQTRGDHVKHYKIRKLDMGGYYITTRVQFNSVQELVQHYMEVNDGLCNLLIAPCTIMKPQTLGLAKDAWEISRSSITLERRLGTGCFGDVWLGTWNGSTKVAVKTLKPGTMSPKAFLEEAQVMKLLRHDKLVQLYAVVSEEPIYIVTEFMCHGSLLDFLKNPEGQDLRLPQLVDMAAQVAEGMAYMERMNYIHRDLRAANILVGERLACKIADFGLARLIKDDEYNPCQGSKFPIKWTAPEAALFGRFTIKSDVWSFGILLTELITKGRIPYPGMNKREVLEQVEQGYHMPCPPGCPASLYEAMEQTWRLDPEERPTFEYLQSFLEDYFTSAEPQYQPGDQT"}, "IGF1R": {"target": "IGF1R (Homo sapiens, UniProt P08069)", "sequence (P08069 whole entry)": "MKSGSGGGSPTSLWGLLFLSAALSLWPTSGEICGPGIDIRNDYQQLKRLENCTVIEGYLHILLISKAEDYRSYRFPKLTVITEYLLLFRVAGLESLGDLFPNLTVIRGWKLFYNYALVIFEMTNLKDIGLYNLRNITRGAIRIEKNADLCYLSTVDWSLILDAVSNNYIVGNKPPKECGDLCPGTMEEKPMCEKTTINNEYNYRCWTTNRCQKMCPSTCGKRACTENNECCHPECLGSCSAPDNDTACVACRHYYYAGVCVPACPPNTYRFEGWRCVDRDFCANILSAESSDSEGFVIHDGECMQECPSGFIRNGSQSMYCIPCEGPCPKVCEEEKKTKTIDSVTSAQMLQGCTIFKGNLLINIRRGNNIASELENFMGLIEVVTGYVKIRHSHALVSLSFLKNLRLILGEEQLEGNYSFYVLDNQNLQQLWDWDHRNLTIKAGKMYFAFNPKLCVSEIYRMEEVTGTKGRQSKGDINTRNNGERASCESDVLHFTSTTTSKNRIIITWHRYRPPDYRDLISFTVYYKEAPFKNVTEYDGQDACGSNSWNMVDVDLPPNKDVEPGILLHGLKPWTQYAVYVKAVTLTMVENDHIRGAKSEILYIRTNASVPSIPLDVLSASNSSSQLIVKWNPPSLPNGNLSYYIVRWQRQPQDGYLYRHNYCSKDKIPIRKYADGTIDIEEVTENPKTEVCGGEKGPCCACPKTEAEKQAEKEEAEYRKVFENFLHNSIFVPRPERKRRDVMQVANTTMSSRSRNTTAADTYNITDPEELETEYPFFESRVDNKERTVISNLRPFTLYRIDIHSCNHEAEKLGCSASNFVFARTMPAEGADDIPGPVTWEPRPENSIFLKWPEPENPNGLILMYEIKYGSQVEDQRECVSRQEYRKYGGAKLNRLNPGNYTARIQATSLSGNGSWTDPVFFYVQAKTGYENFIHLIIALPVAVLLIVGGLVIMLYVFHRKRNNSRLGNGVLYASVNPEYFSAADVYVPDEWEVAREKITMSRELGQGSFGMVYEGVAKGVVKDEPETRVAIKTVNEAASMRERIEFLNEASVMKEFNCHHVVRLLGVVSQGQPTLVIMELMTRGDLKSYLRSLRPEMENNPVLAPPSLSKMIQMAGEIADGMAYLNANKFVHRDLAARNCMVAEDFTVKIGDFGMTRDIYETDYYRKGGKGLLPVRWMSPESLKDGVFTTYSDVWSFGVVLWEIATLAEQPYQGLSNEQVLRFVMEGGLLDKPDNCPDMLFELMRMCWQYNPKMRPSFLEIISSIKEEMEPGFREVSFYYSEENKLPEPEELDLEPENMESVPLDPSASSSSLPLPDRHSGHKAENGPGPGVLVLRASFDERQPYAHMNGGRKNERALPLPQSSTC"}, "PRKAA1_B2_G3": {"target": "T14, PRKAA1_B2_G3 (Homo sapiens, UniProt Q13131)", "T14 construct": "gene PRKAA1"}, "HIPK3": {"target": "HIPK3 (Homo sapiens, UniProt Q9H422)"}, "MSK2": {"target": "T15, MSK2 (Homo sapiens, UniProt O75676)", "T15 construct": "gene RPS6KA4"}, "ERK1": {"target": "T16, ERK1 (Homo sapiens, UniProt P27361)", "T16 construct": "gene MAPK3"}, "CHK2": {"target": "T17, CHK2 (Homo sapiens, UniProt O96017)", "T17 construct": "gene CHEK2"}}, "data": [{"smiles": "CC(C)(O)CC(=O)NCCn1ccc2ncnc(Nc3ccc(Oc4cccc(C(F)(F)F)c4)c(Cl)c3)c21", "note": "[TAK-285]", "values": [{"measurement": "inhibition", "setting": "MuSK", "value": 17.5, "unit": "%"}, {"measurement": "inhibition", "setting": "MRCK_beta", "value": 1.5, "unit": "%"}, {"measurement": "inhibition", "setting": "NEK4", "value": 8.5, "unit": "%"}, {"measurement": "inhibition", "setting": "CSF1R", "value": 10.5, "unit": "%"}, {"measurement": "inhibition", "setting": "HIPK4", "value": 5.5, "unit": "%"}, {"measurement": "inhibition", "setting": "CaMKII_beta", "value": 24.5, "unit": "%"}, {"measurement": "inhibition", "setting": "MAPKAPK3", "value": 14.5, "unit": "%"}, {"measurement": "inhibition", "setting": "Mink1", "value": 7, "unit": "%"}, {"measurement": "inhibition", "setting": "Rse", "value": 10.5, "unit": "%"}, {"measurement": "inhibition", "setting": "ERK2", "value": 12.5, "unit": "%"}, {"measurement": "inhibition", "setting": "PRKAA1", "value": 6, "unit": "%"}, {"measurement": "inhibition", "setting": "PKG1_alpha", "value": 0, "unit": "%"}, {"measurement": "inhibition", "setting": "TNK1", "value": 12, "unit": "%"}, {"measurement": "inhibition", "setting": "GRK7", "value": 5.5, "unit": "%"}, {"measurement": "inhibition", "setting": "NIM1", "value": 8.5, "unit": "%"}, {"measurement": "inhibition", "setting": "PLK3", "value": -8.5, "unit": "%"}, {"measurement": "inhibition", "setting": "Lyn", "value": 39.5, "unit": "%"}, {"measurement": "inhibition", "setting": "PAK7", "value": 5.5, "unit": "%"}, {"measurement": "inhibition", "setting": "CSK", "value": 56.5, "unit": "%"}, {"measurement": "inhibition", "setting": "RSK1", "value": 14.5, "unit": "%"}, {"measurement": "inhibition", "setting": "NEK2", "value": 4, "unit": "%"}, {"measurement": "inhibition", "setting": "p38_alpha(direct)", "value": 4, "unit": "%"}, {"measurement": "inhibition", "setting": "MAPKAPK2", "value": 7.5, "unit": "%"}, {"measurement": "inhibition", "setting": "PhK_gamma1", "value": 7.5, "unit": "%"}, {"measurement": "inhibition", "setting": "PrKX", "value": 6.5, "unit": "%"}, {"measurement": "inhibition", "setting": "SGK1", "value": 2, "unit": "%"}, {"measurement": "inhibition", "setting": "GRK5", "value": -4.5, "unit": "%"}, {"measurement": "inhibition", "setting": "Abl", "value": 9, "unit": "%"}, {"measurement": "inhibition", "setting": "MARK1", "value": 10, "unit": "%"}, {"measurement": "inhibition", "setting": "CK2_alpha2", "value": 6.5, "unit": "%"}, {"measurement": "inhibition", "setting": "PKC_theta", "value": 12, "unit": "%"}, {"measurement": "inhibition", "setting": "Fgr", "value": 65, "unit": "%"}, {"measurement": "inhibition", "setting": "IGF1R", "value": 5, "unit": "%"}, {"measurement": "inhibition", "setting": "PRKAA1_B2_G3", "value": 0.5, "unit": "%"}, {"measurement": "inhibition", "setting": "HIPK3", "value": 0, "unit": "%"}, {"measurement": "inhibition", "setting": "MSK2", "value": 9.5, "unit": "%"}, {"measurement": "inhibition", "setting": "ERK1", "value": 3, "unit": "%"}, {"measurement": "inhibition", "setting": "CHK2", "value": 20, "unit": "%"}]}]}
